Assay results published in PubChem BioAssay (NCI).
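The concentration for 50% growth inhibition is given as GI50. TGI: total growth inhibition.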

Legend:
Assay in all cases: DTP human tumour cell line panel, 384-well format
[1] = tested on: SK-OV-3 ovarian
[2] = tested on: LOX IMVI melanoma
[3] = tested on: NCI-H460 NSCLC
[4] = tested on: SR leukemia
[5] = tested on: SK-MEL-28 melanoma
[6] = tested on: MOLT-4 leukemia
[7] = tested on: SW-620 colon
[8] = tested on: SF-268 CNS
[9] = tested on: MDA-MB-468 breast
[10] = tested on: NCI-H23 lung
[11] = tested on: NCI-H322M lung
[12] = tested on: HS 578T breast
[13] = tested on: HT29 colon

Which results are given for `FC(F)(F)c1ccc(CNc2ccc(Cc3c[nH]c4ncc(Cl)cc34)cn2)cn1`?
GI50 [1]: 12 µM; TGI [1]: 26 µM; GI50 [2]: 14.4 µM; TGI [2]: 27.7 µM; GI50 [3]: 12.9 µM; TGI [3]: 26.1 µM; GI50 [4]: 2.13 µM; TGI [4]: 5.5 µM; GI50 [5]: 9 µM; TGI [5]: 21.7 µM; GI50 [6]: 2.83 µM; TGI [6]: 9.58 µM; GI50 [7]: 15.1 µM; TGI [7]: 28.8 µM; GI50 [8]: 8.91 µM; TGI [8]: 21.7 µM; GI50 [9]: 2.82 µM; TGI [9]: 9.15 µM; GI50 [10]: 11 µM; TGI [10]: 23 µM; GI50 [11]: 8.81 µM; TGI [11]: 21.6 µM; GI50 [12]: 2.15 µM; TGI [12]: 7.11 µM; GI50 [13]: 9.79 µM; TGI [13]: 23 µM
